Converted amounts (≈) assume the structure as drawn. Where only a bound is given, the exact number is not on record here.

For this data set the following is noted: buffer; pH 7.4; 200.0 µM.
By solubility (kinetic) is commonly meant solubility judged after dilution from a stock solution rather than from solid. In turn, `CC(=O)c1ccc(S(=O)(=O)N2CCN(C(C)C(=O)N(C)Cc3ccccc3)CC2)cc1` (centres undefined) showed a solubility (kinetic) of 44 µg/mL (≈ 99.2 µM).
Regarding `CC1CN(C(=O)CCCN2C(=O)c3ccccc3C2=O)CC(C)O1` (centres undefined), the kinetic solubility was more than 49.6 µg/mL.
With `O=C(NC1=NCCS1)c1ccccc1F`, the solubility (kinetic) came to 33.4 µg/mL (≈ 149 µM).
As for `O=C(NC(=S)NC1CCCCC1)c1ccccc1`, the solubility (kinetic) amounted to 8.5 µg/mL (≈ 32.4 µM).
The compound `CCN(CC(=O)Nc1ccc(OC)cc1)C(=O)c1ccc2ccccc2c1` yielded a kinetic solubility of 43.9 µg/mL (≈ 121 µM).
Consider `CCc1c(C)nc(N2CCN(c3cccc(OC)c3)CC2)[nH]c1=O`, for which the solubility (kinetic) is 15.8 µg/mL (≈ 48.1 µM).
Regarding `Cc1ccc(NC(=O)C2C3CCC(O3)C2C(=O)O)cc1C` (centres undefined), the solubility (kinetic) is more than 43.4 µg/mL.
`Cc1ccc(S(=O)(=O)N2CCOCC2)cc1NC(=O)COc1ccccc1Cc1ccccc1` registered a solubility (kinetic) of 4.4 µg/mL (≈ 9.16 µM).
Take `Clc1ccc(Nc2ccc3ccccc3n2)cc1`: the kinetic solubility was less than 0.3 µg/mL.
The same measure for `CCOc1ccc(N2C(=O)CC(Cc3ccccc3OC)C2=O)cc1` (centres undefined): 4.9 µg/mL (≈ 14.4 µM).
To `COc1ccc(CCNC(=O)C2CC2)cc1` belongs 32.4 µg/mL (≈ 148 µM); to `Cc1cnc(NC(=O)[C@H](C)N2C(=O)C3CCCCC3C2=O)s1` (some centres undefined), more than 48.2 µg/mL.
To `CC1CN(C(=O)c2cc3cc(Cl)ccc3[nH]2)CC(C)O1` (centres undefined) belongs 24.3 µg/mL (≈ 83 µM); to `CN(C(=O)/C=C/c1ccccc1)C1CCCCC1`, 35.1 µg/mL (≈ 144 µM).
Regarding `O=C(CCS(=O)(=O)Cc1ccccc1)NCCc1ccccc1`, the kinetic solubility stood at 11.9 µg/mL (≈ 35.9 µM).
In the case of `Cc1cc(C)c2sc(N(CCN(C)C)C(=O)c3ccc4ccccc4c3)nc2c1.Cl`, the kinetic solubility turned out to be 6.7 µg/mL.
In turn, `Cc1cc(C)nc(SCC(=O)Nc2ccnc3ccccc23)n1` displayed a solubility (kinetic) of 6.6 µg/mL (≈ 20.3 µM).
The same measure for `Cc1ccc(C(=O)Nc2ccc(N3CCN(C)CC3)cc2)cc1`: more than 46.4 µg/mL; for `Cc1ccc(CNC(=O)C2CCCN2C(=O)Nc2ccc(C)cc2)cc1` (centres undefined): 11.4 µg/mL (≈ 32.4 µM).
As for `Cc1cccc(C)c1NC(=O)N1CC(C)OC(C)C1` (centres undefined), the solubility (kinetic) is more than 39.4 µg/mL.
In turn, `N#Cc1ccc(-c2csc(-c3ccno3)n2)cc1` returned a kinetic solubility of 1.2 µg/mL (≈ 4.74 µM).
`Cc1cc2c(Nc3ccccc3)ncnc2s1.Cl` displayed a solubility (kinetic) of 13 µg/mL.
Turning to `CN(c1cccc2cccnc12)S(=O)(=O)c1ccccc1`, the kinetic solubility turned out to be 40.7 µg/mL (≈ 136 µM).
To `Cl.NCCNc1ccc([N+](=O)[O-])cc1` belongs more than 32.6 µg/mL; to `O=C(/C=C/c1ccco1)N1CCN(S(=O)(=O)c2cccc([N+](=O)[O-])c2)CC1`, 28.1 µg/mL (≈ 71.8 µM).
To `CNc1nc(-c2ccccc2)[n+](-c2ccc(C)cc2)s1.[Br-]` belongs 42.1 µg/mL; to `COc1cc(CN2CCCN(C)CC2)c([N+](=O)[O-])cc1OC`, 39 µg/mL (≈ 126 µM); to `CN1C(=O)C(=O)/C(=C(/O)c2ccccc2)C1c1ccc([N+](=O)[O-])cc1` (centres undefined), more than 50.7 µg/mL.
Take `NC(=O)c1ccc(NC(=O)CCC(=O)c2cccs2)cc1`: the solubility (kinetic) amounted to 44.6 µg/mL (≈ 148 µM).
In turn, `Cc1[nH]nc(SCC(=O)N2CCCCCC2)c1[N+](=O)[O-]` registered a solubility (kinetic) of more than 44.8 µg/mL.
Compound `COC(=O)c1c(C)nc(C)c(C(=O)OC)c1-c1ccc(OC)cc1` had a kinetic solubility of more than 49.4 µg/mL.
The compound `CN(CCN(C)C(C)(C)C)C(=O)C(c1ccccc1)c1ccccc1` displayed a solubility (kinetic) of 48 µg/mL (≈ 142 µM).
In the case of `O=C(CNC(=O)c1ccc(Br)o1)NCC1CCCO1` (centres undefined), the kinetic solubility was more than 49.7 µg/mL.
On to `Cc1cccc(-n2c(O)c(C=NCCN3CCCCC3)c(=O)[nH]c2=O)c1`, for which the solubility (kinetic) is more than 53.5 µg/mL.
Compound `Fc1ccc(Oc2nc(-c3ccccn3)nc3ccccc23)cc1` gave a solubility (kinetic) of 17.3 µg/mL (≈ 54.5 µM).
For the compound `CCOc1ccc(CCNC(=O)COC(=O)c2ccc[nH]c2=O)cc1OCC`, the kinetic solubility was more than 58.3 µg/mL.
For `O=C(O)C1CCCN1S(=O)(=O)c1ccc(Cl)cc1` (centres undefined), the solubility (kinetic) is more than 43.5 µg/mL.
Compound `COc1ccc(CCC(C)NCc2ccc(Cl)c(Cl)c2)cc1` (centres undefined) yielded a solubility (kinetic) of 17.3 µg/mL (≈ 51.1 µM).
As to `O=C(NC1=NCCS1)c1ccccc1`, the solubility (kinetic) was determined as 21.4 µg/mL (≈ 104 µM).
The same measure for `Cc1cnc(NC(=O)c2sc(Nc3ccccc3)nc2N)o1`: 6.4 µg/mL (≈ 20.3 µM).
The same measure for `CC(C)[C@H](NC(=O)c1ccc(Cl)c([N+](=O)[O-])c1)C(=O)O`: more than 45.1 µg/mL; for `NC(=O)CCC(NC(=O)c1ccc(Cl)cc1)C(=O)O` (centres undefined): more than 42.7 µg/mL; for `CCOC(=O)c1cc(-c2csc(-c3cccc(Cl)c3)n2)on1`: less than 0.4 µg/mL.
`CCCCOCCCNC(=O)N[C@H](C(=O)O)C(C)CC` (some centres undefined) gave a solubility (kinetic) of more than 43.3 µg/mL.
To `O=C(NCCc1c[nH]c2ccccc12)c1ccc(Cl)cc1` belongs 5.2 µg/mL (≈ 17.4 µM); to `O=C1/C(=C/c2ccccc2)SC(=S)N1C1CCS(=O)(=O)C1` (centres undefined), 0.9 µg/mL (≈ 2.65 µM).
Consider `C=CCNc1ccc(N2C(=O)CCCC2=O)cc1[N+](=O)[O-]`, for which the kinetic solubility was more than 43.4 µg/mL.
For the compound `Cc1ccc(NC(=O)NCCN2CCCCC2)cc1C`, the solubility (kinetic) amounted to 37.4 µg/mL (≈ 136 µM).
With `CCN1CCN(C(=O)N(c2ccccc2)c2ccccc2)CC1`, the kinetic solubility is more than 46.4 µg/mL.
Compound `CCOC(=O)C1=C(C)NC(C)=C(C(=O)OCC)C1c1cccc(C)n1` gave a kinetic solubility of 5.1 µg/mL (≈ 14.8 µM).
As for `O=C(O)c1ccc2c(c1)C(=O)N(Cc1ccco1)C2=O`, the solubility (kinetic) is more than 40.7 µg/mL.
In turn, `CC1=C/C(=C/N(C)C)C(=O)O1` came in with a solubility (kinetic) of 15.7 µg/mL (≈ 102 µM).
`Cc1ccc(C)c(NC(=O)c2cc(C)nc3ccccc23)c1`: the solubility (kinetic) is 33.5 µg/mL (≈ 115 µM).
The same measure for `CC(=O)NS(=O)(=O)c1ccc(NC(=O)CSc2ccccc2)cc1`: 42.5 µg/mL (≈ 117 µM); for `Cc1cc(NC(=O)CSc2nc3ccccc3n2CC(C)C)no1`: 7.3 µg/mL (≈ 21.2 µM); for `Cc1c(C=O)c2ccccn2c1C(=O)c1ccc(Cl)c([N+](=O)[O-])c1`: 1.6 µg/mL (≈ 4.67 µM).
On to `CSc1ccc(Cl)c(C(=O)NCCCn2ccnc2)c1`, for which the kinetic solubility was more than 46.5 µg/mL.
Take `OCCN1CCN(Cc2ccc3ccccc3c2)CC1`: the kinetic solubility is 26.9 µg/mL (≈ 99.5 µM).
In turn, `COc1cccc(NC(=O)c2cc(-c3ccco3)nc3ccccc23)c1` displayed a kinetic solubility of less than 0.4 µg/mL.
Compound `COc1cc(C2NC(=O)CCC2[N+](=O)[O-])cc(OC)c1OC` (centres undefined) registered a kinetic solubility of more than 46.5 µg/mL.
Compound `O=C(NC1=NCCS1)c1cccc(Br)c1` came in with a solubility (kinetic) of 11.3 µg/mL (≈ 39.6 µM).
The compound `O=C(CNCc1ccccc1Cl)Nc1cc(S(=O)(=O)N2CCOCC2)ccc1Cl` had a kinetic solubility of 14.5 µg/mL (≈ 31.6 µM).
With `CCOC(=O)Cc1csc(NC(=O)c2cc(C)on2)n1`, the kinetic solubility was more than 44.3 µg/mL.
Take `Cc1nnc2c(N3CCN(CCO)CC3)nc3ccccc3n12`: the solubility (kinetic) was more than 46.9 µg/mL.
To `Cc1ccc(C(=O)NCCc2nnc(SCC(=O)Nc3cccc(C(=O)O)c3)n2C)cc1` belongs more than 68 µg/mL.
For `Cc1cc(C)c(C#N)c(N)n1`, the kinetic solubility was more than 22.1 µg/mL.
On to `Nc1c(NCc2ccccc2)c(=O)c1=O`, for which the solubility (kinetic) was determined as 5.9 µg/mL (≈ 29.2 µM).
To `Cn1c(=O)c(C(=O)NCC2CCCO2)c(O)c2ccccc21` (centres undefined) belongs 15.2 µg/mL (≈ 50.3 µM); to `COC(=O)N1CCN(c2ccc(C)c(C)c2)CC1`, 32.1 µg/mL (≈ 129 µM).
To `CCCCCOc1ccc(NC2=CC(=O)CCC2)cc1` belongs more than 41 µg/mL.
To `CCCCN1C(=O)c2ccc(C(=O)NCc3ccco3)cc2C1=O` belongs 17.9 µg/mL (≈ 54.8 µM).
As to `CC(=O)c1ccc(NC(=O)c2cc(-c3cccs3)on2)cc1`, the kinetic solubility is less than 0.3 µg/mL.
`O=[N+]([O-])c1cccnc1N1CCCNCC1` displayed a solubility (kinetic) of 30.4 µg/mL (≈ 137 µM).
`COC(=O)c1ccc(S(=O)(=O)N2CCN(CCO)CC2)n1C` displayed a solubility (kinetic) of 45.6 µg/mL (≈ 138 µM).
